Numbered stars: 1 amine (or outer) side, 2 acyl side, 3 side chain; on linkers, the order of the positions; unused ones are H or OH. Square brackets hold non-standard residues; d marks the D form. Side chains are listed from the residue outwards. Peptide text beside a SMILES is read from it. * marks the point of attachment. C16 diacid = O=C(O)CCCCCCCCCCCCCCC(=O)*; γGlu = O=C(O)[C@H](CCC(=O)[*:2])N[*:1]; Palmitoyl = CCCCCCCCCCCCCCCC(=O)*; Aib = CC(C)(N)C(=O)O
Molecular target: T1, human GIP R (Homo sapiens, UniProt P48546)
T1 construct: expressed in transfected cells
T1 sequence (P48546 22-466): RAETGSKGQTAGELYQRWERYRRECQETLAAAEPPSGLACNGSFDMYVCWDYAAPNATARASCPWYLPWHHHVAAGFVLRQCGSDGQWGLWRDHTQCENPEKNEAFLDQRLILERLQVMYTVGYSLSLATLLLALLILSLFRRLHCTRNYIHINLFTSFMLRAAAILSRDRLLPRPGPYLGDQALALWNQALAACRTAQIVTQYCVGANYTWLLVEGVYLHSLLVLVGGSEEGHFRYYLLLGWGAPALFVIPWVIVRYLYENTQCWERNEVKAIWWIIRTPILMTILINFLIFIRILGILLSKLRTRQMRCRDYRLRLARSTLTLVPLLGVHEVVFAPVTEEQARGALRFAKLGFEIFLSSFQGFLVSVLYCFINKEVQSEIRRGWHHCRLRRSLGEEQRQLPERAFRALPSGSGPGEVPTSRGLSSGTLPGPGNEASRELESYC
Assay: Human GIP receptor (GIP R) activity assay, cAMP induction (AlphaScreen cAMP kit)
Assay type: cell-based
Details: not given
Method: Human GIP Receptor (GIP R) and GLP-1 Receptor (GLP-1 R) Activity Assay
In vitro effects of peptide conjugates of the invention were assessed by measuring the induction of cAMP following stimulation of the respective receptor by GIP, GLP1 or analogues of these, as outlined in the invention, using the AlphaSceen® cAMP kit from Perkin-Elmer according to instructions. Briefly. HEK293 cells expressing the human GIP R or GLP-1 R (stable cell lines generated through transfection of the cDNA for human GIP R or GLP-1 and selection of stable clones) were seeded at 30,000 cells/well in 96-well microtiter plates coated with 0.01% poly-L-lysine, and grown for 1 day in culture in 200 μl growth medium (DMEM, 10% FCS, Penicillin (100 IU/ml), Streptomycin (100 μg/ml)). On the day of analysis, growth medium was removed and the cells were washed once with […] Tyrode's buffer (Tyrode's Salts (9.6 g/1), 10 mM HEPES, pH 7.4). […] The Assay buffer was removed and cells are lysed in 80 μl Lysis buffer (0.1% w/v BSA, 5 mM HEPES, 0.3% v/v Tween-20) per well. From each well 10 μl lysed cells was transferred to a 384-well plate and mixed with 15 μl bead-mix (1 Unit/15 μl anti-cAMP Acceptor Beads, 1 Unit/15 μl Donor Beads, and 1 Unit/15 μl Biotinylated cAMP in Assay Buffer). The plates were mixed and incubated in the dark for an hour at room temperature before measuring using an Envision™ plate reader (Perkin-Elmer).

| Compound | EC50 |
| --- | --- |
| CC[C@H](C)[C@H](NC(=O)[C@H](CCCCN)NC(=O)[C@H](CCC(=O)O)NC(=O)[C@H](CC(C)C)NC(=O)[C@H](Cc1ccc(O)cc1)NC(=O)[C@@H](NC(=O)[C@H](CO)NC(=O)[C@H](Cc1ccc(O)cc1)NC(=O)[C@H](CC(=O)O)NC(=O)[C@H](CO)NC(=O)[C@@H](NC(=O)[C@H](Cc1ccccc1)NC(=O)[C@@H](NC(=O)CNC(=O)[C@H](CCC(=O)O)NC(=O)C(C)(C)NC(=O)[C@@H](N)Cc1ccc(O)cc1)[C@@H](C)O)[C@@H](C)CC)[C@@H](C)CC)C(=O)N[C@@H](C)C(=O)N[C@@H](C)C(=O)N[C@@H](CCCCN)C(=O)N[C@@H](CCC(=O)O)C(=O)N[C@@H](Cc1ccccc1)C(=O)N[C@H](C(=O)N[C@@H](CC(N)=O)C(=O)N[C@@H](Cc1c[nH]c2ccccc12)C(=O)N[C@@H](CC(C)C)C(=O)N[C@@H](CC(C)C)C(=O)N[C@@H](C)C(=O)N[C@@H](CCC(N)=O)C(=O)N[C@@H](CCCCN)C(N)=O)C(C)C [Compound 4] (H-Y[Aib]EGTFISDYSIYLEKIAAKEFVNWLLAQK-NH2) | 0.022 nM |

Same assay, conditions: HEK293 cells expressing the human GIP R; cAMP induction, 15 min at 37° C.; average values of multiple determinations; read-out: GIP R (EC50 in nM)

| EC50 | Compound |
| --- | --- |
| 0.053 nM | CCCCCCCCCCCCCCCC(=O)N[C@@H](CCC(=O)NCCCC[C@H](NC(=O)[C@H](CCC(=O)O)NC(=O)[C@H](CC(=O)O)NC(=O)[C@H](CC(C)C)NC(=O)[C@H](Cc1ccc(O)cc1)NC(=O)[C@@H](NC(=O)[C@H](CO)NC(=O)[C@H](Cc1ccc(O)cc1)NC(=O)[C@H](CC(=O)O)NC(=O)[C@H](CO)NC(=O)[C@@H](NC(=O)[C@H](Cc1ccccc1)NC(=O)[C@@H](NC(=O)CNC(=O)[C@H](CCC(=O)O)NC(=O)C(C)(C)NC(=O)[C@@H](N)Cc1ccc(O)cc1)[C@@H](C)O)[C@@H](C)O)[C@@H](C)CC)C(=O)N[C@@H](C)C(=O)N[C@@H](C)C(=O)N[C@@H](CCCCN)C(=O)N[C@@H](CC(=O)O)C(=O)N[C@@H](Cc1ccccc1)C(=O)N[C@H](C(=O)N[C@@H](CCC(=O)O)C(=O)N[C@@H](Cc1c[nH]c2ccccc12)C(=O)N[C@@H](CC(C)C)C(=O)N[C@@H](CCC(=O)O)C(=O)N[C@@H](CO)C(=O)N[C@@H](C)C(N)=O)[C@@H](C)CC)C(=O)O [Compound 50] (H-Y[Aib]EGTFTSDYSIYLDEK([γGlu-Palmitoyl])AAKDFIEWLESA-NH2) |
| 0.14 nM | CC[C@H](C)[C@H](NC(=O)[C@H](CO)NC(=O)[C@H](Cc1ccc(O)cc1)NC(=O)[C@H](CC(=O)O)NC(=O)[C@H](CO)NC(=O)[C@@H](NC(=O)[C@H](Cc1ccccc1)NC(=O)[C@@H](NC(=O)CNC(=O)[C@H](CCC(=O)O)NC(=O)C(C)(C)NC(=O)[C@@H](N)Cc1ccc(O)cc1)[C@@H](C)O)[C@@H](C)O)C(=O)N[C@@H](Cc1ccc(O)cc1)C(=O)N[C@@H](CO)C(=O)N[C@@H](CC(=O)O)C(=O)N[C@@H](CCCCN)C(=O)N[C@@H](CCCCN)C(=O)N[C@@H](C)C(=O)N[C@@H](CCC(N)=O)C(=O)N[C@@H](CCCNC(=N)N)C(=O)N[C@@H](C)C(=O)N[C@@H](Cc1ccccc1)C(=O)N[C@H](C(=O)N[C@@H](CC(N)=O)C(=O)N[C@@H](Cc1c[nH]c2ccccc12)C(=O)N[C@@H](CC(C)C)C(=O)N[C@@H](CC(C)C)C(=O)N[C@@H](C)C(=O)NC(C)(C)C(=O)N[C@@H](CCCCN)C(N)=O)C(C)C [Compound 13] (H-Y[Aib]EGTFTSDYSIYSDKKAQRAFVNWLLA[Aib]K-NH2) |
| 0.015 nM | CC[C@H](C)[C@H](NC(=O)[C@H](CO)NC(=O)[C@H](Cc1ccc(O)cc1)NC(=O)[C@H](CC(=O)O)NC(=O)[C@H](CO)NC(=O)[C@@H](NC(=O)[C@H](Cc1ccccc1)NC(=O)[C@@H](NC(=O)CNC(=O)[C@H](CCC(=O)O)NC(=O)C(C)(C)NC(=O)[C@@H](N)Cc1ccc(O)cc1)[C@@H](C)O)[C@@H](C)O)C(=O)N[C@@H](Cc1ccc(O)cc1)C(=O)N[C@@H](CC(C)C)C(=O)N[C@@H](CC(=O)O)C(=O)N[C@@H](CCCCN)C(=O)N[C@@H](CCCCN)C(=O)N[C@@H](C)C(=O)N[C@@H](CCC(N)=O)C(=O)N[C@@H](CCCCN)C(=O)N[C@@H](CCC(=O)O)C(=O)N[C@@H](Cc1ccccc1)C(=O)N[C@H](C(=O)N[C@@H](CC(N)=O)C(=O)N[C@@H](Cc1c[nH]c2ccccc12)C(=O)N[C@@H](CC(C)C)C(=O)N[C@@H](CC(C)C)C(=O)N[C@@H](C)C(=O)NC(C)(C)C(=O)N[C@@H](CCCCN)C(N)=O)C(C)C [Compound 19] (H-Y[Aib]EGTFTSDYSIYLDKKAQKEFVNWLLA[Aib]K-NH2) |
| 0.022 nM | CC[C@H](C)[C@H](NC(=O)[C@H](CO)NC(=O)[C@H](Cc1ccc(O)cc1)NC(=O)[C@H](CC(=O)O)NC(=O)[C@H](CO)NC(=O)[C@@H](NC(=O)[C@H](Cc1ccccc1)NC(=O)[C@@H](NC(=O)CNC(=O)[C@H](CCC(=O)O)NC(=O)C(C)(C)NC(=O)[C@@H](N)Cc1ccc(O)cc1)[C@@H](C)O)[C@@H](C)O)C(=O)N[C@@H](Cc1ccc(O)cc1)C(=O)N[C@@H](CC(C)C)C(=O)N[C@@H](CC(=O)O)C(=O)N[C@@H](CCCCN)C(=O)N[C@@H](CCCCNC(=O)CC[C@H](NC(=O)CCCCCCCCCCCCCCC(=O)O)C(=O)O)C(=O)N[C@@H](C)C(=O)N[C@@H](CCC(N)=O)C(=O)N[C@@H](CCCNC(=N)N)C(=O)N[C@@H](C)C(=O)N[C@@H](Cc1ccccc1)C(=O)N[C@H](C(=O)N[C@@H](CC(N)=O)C(=O)N[C@@H](Cc1c[nH]c2ccccc12)C(=O)N[C@@H](CC(C)C)C(=O)N[C@@H](CC(C)C)C(=O)N[C@@H](C)C(=O)NC(C)(C)C(=O)N[C@@H](CCCCN)C(N)=O)C(C)C [Compound 31] (H-Y[Aib]EGTFTSDYSIYLDKK([γGlu-C16 diacid])AQRAFVNWLLA[Aib]K-NH2) |
| 0.096 nM | CCCCCCCCCCCCCCCC(=O)N[C@@H](CCC(=O)NCCCC[C@H](NC(=O)[C@H](CO)NC(=O)[C@H](CC(=O)O)NC(=O)[C@H](CC(C)C)NC(=O)[C@H](Cc1ccc(O)cc1)NC(=O)[C@@H](NC(=O)[C@H](CO)NC(=O)[C@H](Cc1ccc(O)cc1)NC(=O)[C@H](CC(=O)O)NC(=O)[C@H](CO)NC(=O)[C@@H](NC(=O)[C@H](Cc1ccccc1)NC(=O)[C@@H](NC(=O)CNC(=O)[C@H](CCC(=O)O)NC(=O)C(C)(C)NC(=O)[C@@H](N)Cc1ccc(O)cc1)[C@@H](C)O)[C@@H](C)O)[C@@H](C)CC)C(=O)N[C@@H](C)C(=O)N[C@@H](C)C(=O)N[C@@H](Cc1c[nH]cn1)C(=O)N[C@@H](CC(=O)O)C(=O)N[C@@H](Cc1ccccc1)C(=O)N[C@H](C(=O)N[C@@H](CCC(=O)O)C(=O)N[C@@H](Cc1c[nH]c2ccccc12)C(=O)N[C@@H](CC(C)C)C(=O)N[C@@H](CC(C)C)C(=O)N[C@@H](CCCNC(=N)N)C(=O)N[C@@H](C)C(N)=O)C(C)C)C(=O)O [Compound 47] (H-Y[Aib]EGTFTSDYSIYLDSK([γGlu-Palmitoyl])AAHDFVEWLLRA-NH2) |
| 0.096 nM | CC[C@H](C)[C@H](NC(=O)[C@H](CO)NC(=O)[C@H](Cc1ccc(O)cc1)NC(=O)[C@H](CC(=O)O)NC(=O)[C@H](CO)NC(=O)[C@@H](NC(=O)[C@H](Cc1ccccc1)NC(=O)[C@@H](NC(=O)CNC(=O)[C@H](CCC(=O)O)NC(=O)C(C)(C)NC(=O)[C@@H](N)Cc1ccc(O)cc1)[C@@H](C)O)[C@@H](C)O)C(=O)N[C@@H](Cc1ccc(O)cc1)C(=O)N[C@@H](CC(C)C)C(=O)N[C@@H](CC(=O)O)C(=O)N[C@@H](CCCCN)C(=O)N[C@@H](CCCCN)C(=O)N[C@@H](C)C(=O)N[C@@H](CCC(N)=O)C(=O)N[C@@H](CCCNC(=N)N)C(=O)N[C@@H](C)C(=O)N[C@@H](Cc1ccccc1)C(=O)N[C@H](C(=O)N[C@@H](CC(N)=O)C(=O)N[C@@H](Cc1c[nH]c2ccccc12)C(=O)N[C@@H](CC(C)C)C(=O)N[C@@H](CC(C)C)C(=O)NC(C)(C)C(=O)N[C@@H](CCCCN)C(N)=O)C(C)C [Compound 24] (H-Y[Aib]EGTFTSDYSIYLDKKAQRAFVNWLL[Aib]K-NH2) |

Source: patent US10100097B2, “GIP-GLP-1 dual agonist compounds and methods” (Zealand Pharma A/S, priority 2012, dated 2018)
